Assay results reported in patent publication US10398751B2, “Pharmaceutical compositions of water soluble peptides with poor solubility in isotonic conditions and methods for their use” (STRONGBRIDGE IRELAND LIMITED, priority 2016, dated 2019).
Structures can show the parent of a compound that is named as a salt. Where two headings read alike, the source gives them in different places. Blank lines part the entries; values can stand above or below the compound they belong to.

How the values were obtained:
in vivo = test: in vivo; set-up: species or system rats; settings: rat, sc
Method: The lactic acid vehicle for use in the formulations as shown in Table 7 below was prepared as follows: Formulations for injection into rats were prepared as summarized in Table 8. Subject rats (mean weight of about 370 grams per subject) were injected according to the above dosing schedule in groups of 5 rats per treatment. Baseline tail bleed samples were drawn from the rats at 2 days prior to dosing. […] Blood samples were approximately 300 uL of whole blood collected in commercial K3 EDTA-coated tubes. Subject rats were also observed for injection site reactions for up to 5-7 days post-dosing. Blood samples were kept on ice following collection until the time of centrifugation. Blood samples were processed within 60 minutes from blood collection. Samples were centrifuged at 3000 G for 15 minutes in a refrigerated centrifuge (5° C.). Plasma was withdrawn from the tubes after centrifugation and placed into new, appropriately labeled tubes and stored at −65° C. to −80° C. until transfer. […] Veldoreotide acetate standard was serially diluted with methanol:water (1:9) and added to blank rat plasma to generate calibration standards and QC samples. The calibration samples were stored at −70° C. Frozen samples were then thawed to room temperature. Blank plasma and reagent blank (water) were also prepared. For each 100 uL aliquot of sample, calibrator or QC sample, 25 uL (˜100 ng/mL) of internal standard (octreotide acetate) in methanol:water (1:9) and 600 uL of acetonitrile:formic acid (99:1) were added and the samples vortex mixed for 30 seconds. Samples were diluted by mixing 20 uL of plasma sample with 180 uL of blank plasma and aliquotted at 100 uL prior to addition of the internal standard and acetonitrile:formic acid solutions. Samples were then centrifuged for 10 minutes at 14,000 rpm at 8° C. 450 uL of the upper (organic) layer was then transferred to evaporation tubes and evaporated under nitrogen at about 50° C. Samples were then reconstituted in 200 uL of reconstitution solution (water:acetonitrile:formic acid at 70:30:0.2). Samples were centrifuged for 10 minutes at 4000 rpm at 8° C. 160 uL of each sample was withdrawn and placed in an autosampler vial with conic glass insert and analyzed via LC-MS/MS. Veldoreotide acetate plasma concentrations were then plotted and analyzed using standard pharmacokinetic techniques.

[1] = Emulsification of cottonseed oil and water for injection; format: physicochemical
Method: Based on its amphiphilic properties, veldoreotide acetate was evaluated by means of emulsion formulation. […] Thus, veldoreotide acetate may be considered a w/o ionic surfactant or hydrotrope with a hydrophilic lipophilic balance (HLB) of 6.
The samples were mixed using 25G syringe and vortexed at room temperature.
Veldoreotide was formulated as a water in oil emulsion using 80% (wt %) cottonseed oil, 20% (wt %) water for injection (WFI) and 1% (wt %) veldoreotide acetate. Specifically, 10 mg of veldoreotide acetate was dissolved in 200 uL WFI in a 5 mL glass vial, 800 mg of cottonseed oil was added and the resulting mixture was stirred under magnetic stirring at room temperature for 15 minutes at 1000 rpm. The emulsion was then viewed under the light microscope and stored under refrigeration. The resulting emulsion was stable and found to be injectable via 27G needle.

[2] = Pharmacokinetics of IR formulations in minipigs; format: in vivo; settings: minipig, plasma, sc; for AUC(0-t) / Tmax: minipigs; for bioavailability: read-out: Minipigs absolute BA (F %)
[3] = Solubility of COR005 acetate in aqueous media with additives at 25° C.; format: physicochemical; settings: read-out: Solubility of COR005 Acetate (mg/ml) at 25° C.
Source text: Table 3 summarizes the solubility values of COR005 acetate in various aqueous media, the effects of additives such as DEX and HPB on the peptide solubility in saline and physiological conditions, as well as the PK profile of IR and MS formulations prepared with these additives in comparison to COR005 without additives as control.
Note that both media (PBS or Saline) contained physiological concentrations of chloride which indicates the incompatibility and salting out of the peptide in the presence of the chloride ion.
The relatively high solubility of COR005 acetate in 5% dextrose (in water) of greater than 500 mg/ml indicates the improved solubility of the peptide in water with dextrose. […] Note that this 1:1 diluted dextrose in saline was used as a vehicle in the IR study of COR005 acetate in rats and minipigs (the DEX:PEP ratio was 5:1).

[4] = 0.1 mg/kg, IR, SC, 0.1 mg/Kg, DEX:PEP 5:1 saline
[5] = 0.1 mg/kg, IR, SC 0.1 mg/Kg, DEX:PEP 5:1 saline
[6] = 0.1 mg/kg, IR, SC 0.1 mg/Kg, Lactic acid buffer
[7] = 0.4 mg/kg, IR, SC 0.4 mg/Kg, DEX:PEP 5:1 saline
[8] = 0.4 mg/kg, IR, SC 0.4 mg/Kg, HPB:PEP 15:1 saline
[9] = 0.4 mg/kg, IR, SC 0.4 mg/Kg, Lactic acid buffer
[10] = 0.4 mg/kg, IR, SC, 0.4 mg/Kg, DEX:PEP 5:1 saline
[11] = 0.4 mg/kg, IR, SC, 0.4 mg/Kg, HPB:PEP 15:1 saline

Cmax (in vivo; Sprague-Dawley, 3 mg/kg, Rats Cmax (ng/ml)): 544 ng/mL
bioavailability (in vivo; Sprague-Dawley, 3 mg/kg, pH 4, Rats BA (F %)): 83%
Cmax (in vivo; Sprague-Dawley, 3 mg/kg, pH 4, Rats Cmax (ng/ml)): 345 ng/mL
bioavailability (in vivo; Sprague-Dawley, […], Rats BA (F %)): 82%
bioavailability (in vivo; Sprague-Dawley, pH 4, Rats BA (F %)): 70%
Cmax (in vivo; Sprague-Dawley, pH 4, Rats Cmax (ng/ml)): 350 ng/mL
hydrophilic lipophilic balance (HLB) ([1]; w/o ionic surfactant or hydrotrope): 6
Cmax [2, 4]: 53 ng/mL
AUC(0-t) [2, 5]: 53 ng·h/mL
Tmax [2, 5]: 60 min
AUC(0-t) [2, 6]: 26 ng·h/mL
Tmax [2, 6]: 30 min
Cmax ([2]; 0.1 mg/kg, pH 4, IR, Lactic acid buffer pH 4): 29 ng/mL
AUC(0-t) [2, 7]: 205 ng·h/mL
Tmax [2, 7]: 30 min
AUC(0-t) [2, 8]: 198 ng·h/mL
Tmax [2, 8]: 15 min
AUC(0-t) [2, 9]: 161 ng·h/mL
Tmax [2, 9]: 60 min
solubility ([3]; 0.45% NaCl with […] dextrose (isotonic), Isotonic 0.45NS (0.45% NaCl) 2.5D Dextrose […], DEX:PEP 5:1): 6 to 7 mg/mL
solubility ([3]; 0.45% NaCl, 0.45NS - 0.45% NaCl, additives none): 3 mg/mL
solubility ([3]; 5% dextrose in water (isotonic), 5% Dextrose Isotonic, additives none): ≥ 300 mg/mL
solubility ([3]; isotonic PBS pH 7.4, pH 7.4, PBS pH 7.4 Isotonic, HPB:PEP 1:1): 4.5 mg/mL
solubility ([3]; isotonic PBS pH 7.4, pH 7.4, PBS pH 7.4 Isotonic, HPB:PEP 1:4): 2.5 mg/mL
solubility ([3]; isotonic PBS pH 7.4, pH 7.4, PBS pH 7.4 Isotonic, HPB:PEP 10:1): 10 mg/mL
solubility ([3]; isotonic PBS with HPB, pH 7.4, PBS pH 7.4 Isotonic, HPB:PEP 1:2): 2.5 mg/mL
solubility ([3]; isotonic PBS with dextrose, pH 7.4, PBS pH 7.4 Isotonic, DEX:PEP 1:8): 2 mg/mL
solubility ([3]; isotonic PBS with dextrose, pH 7.4, PBS pH 7.4 Isotonic, DEX:PEP 5:1): 1.6 mg/mL
solubility ([3]; isotonic saline, Saline Isotonic, HPB:PEP 15:1): 10 mg/mL
solubility ([3]; isotonic saline, Saline Isotonic, Lys-HCl:PEP 4:1): 1.7 mg/mL
solubility ([3]; lactic acid buffer pH 4.0, isotonic, pH 4, Lactic acid buffer pH 4.0 Isotonic, MAN:PEP 20:1, HPB:PEP 15:1, Est. = estimated by UV-Vis): 500 mg/mL
solubility ([3]; lactic acid buffer pH 4.0, isotonic, pH 4, Lactic acid buffer pH 4.0 Isotonic, Mannitol MAN:PEP 20:1, Est. = estimated by UV-Vis): 500 mg/mL
solubility ([3]; normal saline (0.9% NaCl), NS - 0.9% NaCl, additives none): 1 to 2 mg/mL
solubility ([3]; water, additives none): ≥ 300 mg/mL
SMILES: C[C@@H](O)[C@@H]1NC(=O)[C@H](CCCCN)NC(=O)[C@@H](Cc2c[nH]c3ccccc23)NC(=O)[C@H](Cc2c[nH]c3ccccc23)NC(=O)[C@H](Cc2ccccc2)NC(=O)CCCNC(=O)CCCN(CC(N)=O)C(=O)[C@H](Cc2ccccc2)NC1=O [Veldoreotide Acetate, Cyclo(-γ-aminobutyryl-L-phenylalanyl-L-tryptophanyl-D-tryptophanyl-L-lysyl-L-threonyl-L-phenylalanyl-N-carbamoylmethyl-γ-aminobutyryl), acetate salt]

Cmax (in vivo; HSD:Sprague Dawley SD, 3 mg/kg, Rats Cmax (ng/ml)): 544 ng/mL
Cmax (in vivo; HSD:Sprague Dawley SD, 3 mg/kg, pH 4, Rats Cmax (ng/ml)): 345 ng/mL
emulsification ([1]; 16.6 weight % cottonseed oil, 74.2 weight % WFI, 9.2 weight % peptide, room temperature): allowing an emulsion to form
bioavailability [2, 4]: 91%
bioavailability ([2]; 0.1 mg/kg, pH 4, IR, SC, 0.1 mg/Kg, Lactic acid buffer pH 4): 45%
Cmax [2, 10]: 238 ng/mL
bioavailability [2, 10]: 88.4%
Cmax [2, 11]: 255 ng/mL
bioavailability [2, 11]: 85.3%
bioavailability ([2]; 0.4 mg/kg, pH 4, IR, SC, 0.4 mg/Kg, Lactic acid buffer pH 4): 69%
Cmax ([2]; 0.4 mg/kg, pH 4, IR, Lactic acid buffer pH 4): 108 ng/mL
solubility ([3]; isotonic 5% dextrose in water, 5% Dextrose Isotonic, additives none): > 500 mg/mL
SMILES: C[C@@H](O)[C@@H]1NC(=O)[C@H](CCCCN)NC(=O)[C@@H](Cc2c[nH]c3ccccc23)NC(=O)[C@H](Cc2c[nH]c3ccccc23)NC(=O)[C@H](Cc2ccccc2)NC(=O)CCCNC(=O)CCCN(CC(N)=O)C(=O)[C@H](Cc2ccccc2)NC1=O [Veldoreotide, cyclo(-γ-aminobutyryl-L-phenylalanyl-L-tryptophanyl-D-tryptophanyl-L-lysyl-L-threonyl-L-phenylalanyl-N-carbamoylmethyl-γ-aminobutyryl)]
